# According to patent US20090280193A1, “Enerceutical mediated activation of the Alternative Cellular Energy (ACE) pathway in the therapy of diseases” (priority 2008, published 2009):
# Experiment: UV light induced fluorescence when mixed with freshly prepared neutral red
# Type: physicochemical
# Description: This concept is fully consistent with the finding that various mineral and organic substances can be formulated that similarly show fluorescence when mixed with neutral red and illuminated with UV light. Not all cellular energy delivering products show this reaction but may yet presumably still be are able to absorb energies; and further that such absorption may be facilitated using various types of dyes or other chemicals. The advantage of a current formulation that has been devised over the last several years is that it clearly fluoresces with neutral red and that a distant action can be easily observed in a distantly held neutral red indication solution. This action includes otherwise unexplained movements of fine particles within the neutral red solution and more strikingly the induced crystallization that occurs in the neutral red solution. […] The UV inducible fluorescence, or other form of energy emission, within the plastic bags will typically evoke some discernable fluorescence within at least some skin areas in most of the treated and symptomatic patients, consistent with an overall systemic activation of the body's ACE pathway. […] The liquid-in-a-bag format also allows for the addition of other materials that can further enhance the activation and/or fluorescence of the formulations being studied. […]
smiles,measurement,value
CCN(CC)CC(=O)Nc1c(C)cccc1C [Lidocaine],fluorescence with neutral red,will not fluoresce
